Measured values taken from US8420122B2, “Process for the precipitation and isolation of 6,6-dimethyl-3-aza-bicyclo [3.1.0] hexane-amide compounds by controlled precipitation and pharmaceutical formulations containing same” (Merck Sharp & Dohme Corp., priority 2006, dated 2013).
Read-outs that look alike come from different tables or passages of the source.

Legend:
[1] = Aggregated / median particle size and size distribution; format: physicochemical; conditions: for Aggregated particle size: additional runs A, B, C (mixing Tee)
Description: As used herein “median precipitated particle size” “median aggregate particle size” and “particulate size distribution” are determined by Laser Diffraction […] measurements.

[2] = BET surface area (bulk surface area); format: physicochemical; conditions: for bulk surface area after distillation step: final granulate product
QT/QTc intervals = assay: QT/QTc study, mean QTcF change from time-matched baseline; conditions: for QT interval (mean QTcF change from time-matched baseline): Day 5, relative to placebo
Description: A study was conducted to evaluate the effect of both a therapeutic (800 mg TID) and a supratherapeutic (1200 mg TID) dose of the compound of Formula B at steay-state on QT/QTc intervals, as measured by mean maximum change from time-matched baseline ECG recordings compared to placebo.
Thirty-six subjects who met entry criteria received one of four study treatments for Days 1 to 5 of each treatment period. This study was conducted in a 4-way crossover manner so that subjects were randomized to receive the 4 study treatments in one of four sequences. Prior to treatment crossover, subjects completed an approximately 1-week outpatient washout period.

[3] = Softening point of precipitate (FBRM during controlled heating); format: physicochemical
Description: (§1) For the Examples which follow, particle size information was acquired by measuring the particulate material produced in the slurry using Focused Beam Reflectance Measurements (FBRM) performed with a Lasentec probe from Mettler Toledo in accordance with manufacturers directions for obtaining such measurements. Measurements were carried out on a sample of the slurry as obtained from the holding tank prior to vacuum distillation. The procedure and equipment can measure particulate materials over a size range of from 1 micron up to 1000 microns. Primary particle size was characterized qualitatively by Scanning Electron Microscopy (SEM). Changes in particle aggregation and aggregate morphology were observed by SEM under various conditions to determine softening point of the precipitated material. For SEM determination of softening point, a sample of the slurry was obtained periodically at each temperature interval as the slurry was heated. The solids in the sample were collected by filtration, dried under vacuum for 1 to 2 hours and the dried sample was examined using conventional SEM. […] The softening point was inferred from the sampling temperature at which the precipitate began to show loss of nodular particle appearance when examined by SEM in this manner.
Verified by SEM observations, it was shown also that softening point could be determined from FBRM measurements (taken in accordance with manufactures instructions) made on a sample of the slurry undergoing controlled heating. […] FBRM measurements were obtained continuously during the heating cycle and the softening point was determined to be the temperature corresponding to the maxima in the particle count curve over the heating regime.
A precipitate slurry of the compound of Formula B was prepared by setting the flow control valves to supply 3400 ml/min. of n-heptane and 840 ml/min of the MTBE/compound of Formula B solution. […] An aliquot of the slurry thus produced was also evaluated to determine the softening point of the precipitate therein. […] In this manner the softening temperature was determined to be at 36.2 C.

[4] = Primary particle size and morphology by Scanning Electron Microscopy (SEM); format: physicochemical
Description: As used herein “primary particle” is the initially formed particles nucleated by combining a solution and anti-solvent. “Primary particle size” refers to the size of a primary particle and is determined by Scanning Electron Microscopy (SEM).
For the Examples which follow, particle size information was acquired by measuring the particulate material produced in the slurry using Focused Beam Reflectance Measurements (FBRM) performed with a Lasentec probe from Mettler Toledo in accordance with manufacturers directions for obtaining such measurements. Measurements were carried out on a sample of the slurry as obtained from the holding tank prior to vacuum distillation. The procedure and equipment can measure particulate materials over a size range of from 1 micron up to 1000 microns. Primary particle size was characterized qualitatively by Scanning Electron Microscopy (SEM). Changes in particle aggregation and aggregate morphology were observed by SEM under various conditions to determine softening point of the precipitated material. For SEM determination of softening point, a sample of the slurry was obtained periodically at each temperature interval as the slurry was heated. The solids in the sample were collected by filtration, dried under vacuum for 1 to 2 hours and the dried sample was examined using conventional SEM. […]

[5] = Bulk density / tapped density; format: physicochemical
Description: The particulate prepared above was recovered by pressure filtration and vacuum dried under house vacuum (approximately 60 to 70 torr) for 2 hours at 25 C followed by 8 hours of house vacuum at 35 C. The product was finish-dried at 45 C under house vacuum for an additional 16 hours. The dried particulate was evaluated and found to have a primary particle size ranging from less than 1 micron up to about 2 microns. The specific surface area (BET absorption method) was determined to be about 19.11 m2/g. The bulk density of isolated material was determined by weighing a 25 ml (unpacked) sample.

[6] = Comparative PK Results-2: Day 5 multiple-dose pharmacokinetics; format: in vivo, human; conditions: for Tmax: read-out: Tmax, median; for half-life: read-out: t1/2, mean (converted)
Description: Pharmacokinetic samples for the determination of plasma concentrations of the compound of Formula B were collected on Day 5 of each period. PK samples were collected predose (0 hour), 1, 2, 3, 4, 6, 8, 12, and 24-hours postdose.

[7] = Chord length by Focused Beam Reflectance Measurements (FBRM); format: physicochemical; conditions: Example I first run, slurry, 0.41 M MTBE solution, 20° C.
Description: as §1

[8] = additional runs A, B, C, precipitate before distillation
[9] = Comparative Example I, stirred batch reactor
[10] = Example I first run, dried particulate
[11] = 800 mg TID, Day 5, healthy subjects, n = 31
[12] = human, plasma, oral, 800 mg TID, Day 5, healthy subjects, n = 31
[13] = human, plasma, oral, 1200 mg TID, Day 5, healthy subjects, n = 35
[14] = Example I second run, isolated material

CC(C)(C)NC(=O)NC(C(=O)N1CC2C([C@H]1C(=O)NC(CC1CCC1)C(=O)C(N)=O)C2(C)C)C(C)(C)C (stereo partly shown) [Example C3]
Aggregated particle size [1]: 10-20 microns

CC(C)(C)NC(=O)NC(C(=O)N1CC2C([C@H]1C(=O)NC(CC1CCC1)C(=O)C(N)=O)C2(C)C)C(C)(C)C (stereo partly shown) [Example B3]
BET Surface area [2, 8]: 32.00 m^2/g
Aggregated particle size [1]: 10-20 microns

CC(C)(C)NC(=O)NC(C(=O)N1CC2C([C@H]1C(=O)NC(CC1CCC1)C(=O)C(N)=O)C2(C)C)C(C)(C)C (stereo partly shown) [Example A1]
BET Surface area [2, 8]: 30.19 m^2/g
Aggregated particle size [1]: 10-20 microns

CC(C)(C)NC(=O)NC(C(=O)N1CC2C([C@H]1C(=O)NC(CC1CCC1)C(=O)C(N)=O)C2(C)C)C(C)(C)C (stereo partly shown) [Example C1]
BET Surface area [2, 8]: 24.85 m^2/g
bulk surface area after distillation step [2]: 6.13 m^2/g
Aggregated particle size [1]: 0.25-25.5 microns

CC(C)(C)NC(=O)NC(C(=O)N1CC2C([C@H]1C(=O)NC(CC1CCC1)C(=O)C(N)=O)C2(C)C)C(C)(C)C (stereo partly shown) [Example A3]
BET Surface area [2, 8]: 17.41 m^2/g
Aggregated particle size [1]: 20-30 microns

COc1c(N2C[C@@H]3CCCN[C@@H]3C2)c(F)cc2c(=O)c(C(=O)O)cn(C3CC3)c12 [moxifloxacin, reference compound]
QT/QTc interval (mean QTcF change from time-matched baseline) (QT/QTc intervals; 400 mg QD, positive control): lengthened QT/QTc interval

CC(C)(C)NC(=O)NC(C(=O)N1CC2C([C@H]1C(=O)NC(CC1CCC1)C(=O)C(N)=O)C2(C)C)C(C)(C)C (stereo partly shown) [compound of Formula B, 3-[2-(3-tert-Butyl-ureido)-3,3-dimethyl-butyryl]-6,6-dimethyl-3-aza-bicyclo[3.1.0]hexane-2-carboxylic acid (2-carbamoyl-1-cyclobutylmethyl-2-oxo-ethyl)-amide]
softening point of the wet cake [3, 9]: below 30 °C
softening temperature ([3]; Example I first run, slurry aliquot heated 1 C/min): 36.2 C
softening point ([3]; Example I second run, slurry distilled to about 35% of original volume): 51.6 °C
primary particle size [4, 10]: less than 1 micron up to about 2 microns
primary particle size ([4]; Example I second run, after distillation, isolated material): less than 1 micron
bulk density [5, 9]: 0.16 g/mL
bulk density ([5]; Example I first run, isolated material): 0.3 g/mL
bulk density average ([5]; Example I second run, isolated particulate): 0.191 g/cm³
bulk density ([5]; Example II precipitate): 0.23 g/mL
bulk density ([5]; Example III precipitate): 0.18 g/mL
CL/F, mean [6, 11]: 158 L/h
Cmin, mean [6, 11]: 61.9 ng/mL
CL/F, mean ([6]; 1200 mg TID, Day 5, healthy subjects, n = 35): 196 L/h
AUC ([6]; human, plasma, oral, 800 mg, 800 mg TID, Day 5, healthy subjects, n = 31, read-out: AUC(τ), mean): 5320 ng·h/mL
Cmax ([6]; human, plasma, oral, 800 mg, 800 mg TID, Day 5, healthy subjects, n = 31, sum of diastereomers, read-out: Cmax, mean): 1690 ng/mL
AUC ([6]; human, plasma, oral, 800 mg, 800 mg TID, Day 5, read-out: Individual AUC(τ) values, range): 3250 to 8900 ng·h/mL
Cmax ([6]; human, plasma, oral, 800 mg, 800 mg TID, Day 5, read-out: Individual Cmax values, range): 1150 to 2500 ng/mL
AUC ([6]; human, plasma, oral, 1200 mg, 1200 mg TID, Day 5, healthy subjects, n = 35, read-out: AUC(τ), mean): 6500 ng·h/mL
Cmax ([6]; human, plasma, oral, 1200 mg, 1200 mg TID, Day 5, healthy subjects, n = 35, sum of diastereomers, read-out: Cmax, mean): 1940 ng/mL
AUC ([6]; human, plasma, oral, 1200 mg, 1200 mg TID, Day 5, read-out: Individual AUC(τ) values, range): 2500 to 9400 ng·h/mL
Cmax ([6]; human, plasma, oral, 1200 mg, 1200 mg TID, Day 5, read-out: Individual Cmax values, range): 1100 to 3150 ng/mL
Vd/F [6, 12]: 530 L
Tmax [6, 12]: 2 h
half-life [6, 12]: 2.31 h
Vd/F [6, 13]: 879 L
concentration at 5 day ([6]; human, plasma, oral, 1200 mg TID, Day 5, healthy subjects, n = 35, read-out: Cmin, mean): 79.9 ng/mL
Tmax [6, 13]: 2 h
half-life [6, 13]: 3.01 h
BET Surface area [2, 9]: 1.76 m^2/g
specific surface area (BET absorption method) [2, 10]: about 19.11 m2/g
average bulk surface area (BET) [2, 14]: about 10.3 m^2/g
bulk surface area ([2]; Example II precipitate): 8.14 m^2/g
bulk surface area ([2]; Example III precipitate): 7.2 m^2/g
agglomerated average particle size [1, 14]: 11 microns
median particulate size ([1]; Example II precipitate): 1.57 microns
median particulate size ([1]; Example III precipitate): 1.46 microns
QT interval (mean QTcF change from time-matched baseline) (QT/QTc intervals; 800 mg therapeutic dose (LD) TID): does not prolong the QT interval
QT interval (mean QTcF change from time-matched baseline) (QT/QTc intervals; 1200 mg supratherapeutic dose (HD) TID): does not prolong the QT interval
average chord length of agglomerated particulate [7]: 15.8 microns

CC(C)(C)NC(=O)NC(C(=O)N1CC2C([C@H]1C(=O)NC(CC1CCC1)C(=O)C(N)=O)C2(C)C)C(C)(C)C (stereo partly shown) [Example B1]
BET Surface area [2, 8]: 32.75 m^2/g
Aggregated particle size [1]: 10-20 microns

CC(C)(C)NC(=O)NC(C(=O)N1CC2C([C@H]1C(=O)NC(CC1CCC1)C(=O)C(N)=O)C2(C)C)C(C)(C)C (stereo partly shown) [Example C2]
BET Surface area [2, 8]: 32.41 m^2/g
bulk surface area after distillation step [2]: 6.31 m^2/g
Aggregated particle size [1]: 0.25-18 microns

CC(C)(C)NC(=O)NC(C(=O)N1CC2C([C@H]1C(=O)NC(CC1CCC1)C(=O)C(N)=O)C2(C)C)C(C)(C)C (stereo partly shown) [Example A2]
BET Surface area [2, 8]: 16.44 m^2/g
Aggregated particle size [1]: 10-20 microns

CC(C)(C)NC(=O)NC(C(=O)N1CC2C([C@H]1C(=O)NC(CC1CCC1)C(=O)C(N)=O)C2(C)C)C(C)(C)C (stereo partly shown) [Example B2]
BET Surface area [2, 8]: 25.68 m^2/g
Aggregated particle size [1]: 10-20 microns

CC(C)(C)NC(=O)NC(C(=O)N1CC2C([C@H]1C(=O)NC(CC1CCC1)C(=O)C(N)=O)C2(C)C)C(C)(C)C (stereo partly shown) [Example C4]
Aggregated particle size [1]: 10-20 microns

CC(C)(C)NC(=O)NC(C(=O)N1CC2C([C@H]1C(=O)NC(CC1CCC1)C(=O)C(N)=O)C2(C)C)C(C)(C)C (stereo partly shown) [Example B4]
BET Surface area [2, 8]: 24.24 m^2/g
